Source: patent US9790230B2 (Hoffmann-La Roche Inc., priority 2015, dated 2017)
Like-named read-outs stand apart in the source and are kept apart here.

Tests used:
rat TAAR1 = rat TAAR1 (Rattus norvegicus (Rat), UniProt Q923Y9); assay: Radioligand binding assay on rat TAAR1;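 further: membranes from HEK293 cells stably transfected with rat TAAR1, tritiated TAAR1 radioligand, 1 h incubation at 4 °C, nonspecific binding determined with excess unlabeled ligand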
mouse TAAR1 = mouse TAAR1 (Mus musculus (Mouse), UniProt Q923Y8); assay: Radioligand binding assay on mouse TAAR1
Chain of mouse TAAR1 (Q923Y8 whole entry): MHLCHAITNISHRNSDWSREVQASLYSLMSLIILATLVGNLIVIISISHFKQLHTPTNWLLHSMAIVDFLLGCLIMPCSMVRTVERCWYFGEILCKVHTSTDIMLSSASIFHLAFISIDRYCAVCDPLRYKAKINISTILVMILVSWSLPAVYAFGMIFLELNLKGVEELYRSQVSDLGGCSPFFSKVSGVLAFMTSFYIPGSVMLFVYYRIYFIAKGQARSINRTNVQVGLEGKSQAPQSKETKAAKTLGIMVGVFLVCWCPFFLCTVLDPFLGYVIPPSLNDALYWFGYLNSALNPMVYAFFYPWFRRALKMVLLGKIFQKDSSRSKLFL

[1] = read-out: Ki (μM) rat, rat TAAR1, HEK-293 membranes, second value of cell mouse/rat
[2] = read-out: Ki (μM) mouse, mouse TAAR1, HEK-293 membranes, first value of cell mouse/rat

Chain of rat TAAR1 (Q923Y9 whole entry): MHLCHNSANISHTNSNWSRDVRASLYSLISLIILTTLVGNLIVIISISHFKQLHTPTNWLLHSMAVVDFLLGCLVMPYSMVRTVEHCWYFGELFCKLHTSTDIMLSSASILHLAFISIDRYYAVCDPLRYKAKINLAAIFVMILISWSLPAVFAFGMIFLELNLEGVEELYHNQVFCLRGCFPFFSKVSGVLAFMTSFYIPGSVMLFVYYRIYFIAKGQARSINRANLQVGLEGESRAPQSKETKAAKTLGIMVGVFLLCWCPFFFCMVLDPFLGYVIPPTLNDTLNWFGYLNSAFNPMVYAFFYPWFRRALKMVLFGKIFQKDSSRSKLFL

Row | Compound | Ki (rat TAAR1; [1]) [µM] | Ki (mouse TAAR1; [2]) [µM] | Ki (rat TAAR1) [µM] | Ki (mouse TAAR1) [µM] | further results
1 | CC(C)Cc1n[nH]c(C(=O)Nc2ccc([C@@H]3O[C@H]4CN[C@@H]3C4)cc2)c1F [Example 100, 4-Fluoro-3-isobutyl-N-[4-[(1R,3S,4R)-2-oxa-5-azabicyclo[2.2.1]heptan-3-yl]phenyl]-11H-pyrazole-5-carboxamide] | 0.0278 | 0.0059 |  |  | 
2 | CC(C)Cc1cc(C(=O)Nc2ccc([C@@H]3O[C@H]4CN[C@@H]3C4)cc2)[nH]n1 [Example 101, 3-Isobutyl-N-[4-[(1R,3S,4R)-2-oxa-5-azabicyclo[2.2.1]heptan-3-yl]phenyl]-1H-pyrazole-5-carboxamide] |  |  | 0.0807 | 0.0057 | 
3 | CC(C)c1n[nH]c(C(=O)Nc2ccc([C@@H]3O[C@H]4CN[C@@H]3C4)cc2)c1Cl [Example 102, 4-Chloro-3-isopropyl-N-[4-[(1R,3S,4R)-2-oxa-5-azabicyclo[2.2.1]heptan-3-yl]phenyl]-11H-pyrazole-5-carboxamide] | 0.0142 | 0.0089 |  |  | 
4 | CC(C)c1n[nH]c(C(=O)Nc2ccc([C@@H]3O[C@H]4CN[C@@H]3C4)cc2)c1F [Example 103, 4-Fluoro-3-isopropyl-N-[4-[(1R,3S,4R)-2-oxa-5-azabicyclo[2.2.1]heptan-3-yl]phenyl]-11H-pyrazole-5-carboxamide] | 0.0405 | 0.0096 |  |  | 
5 | c1ccc([C@@H]2O[C@H]3CN[C@@H]2C3)nc1 [Example 104, (1R,3R,4R)-3-(2-Pyridyl)-2-oxa-5-azabicyclo[2.2.1]heptane] |  |  | > 1.5 | > 1.49 | 
6 | c1ccc([C@H]2O[C@@H]3CN[C@H]2C3)nc1 [Example 105, (1S,3S,4S)-3-(2-Pyridyl)-2-oxa-5-azabicyclo[2.2.1]heptane] |  |  | 0.324 | 0.0465 | 
7 | Fc1ccccc1[C@@H]1O[C@H]2CN[C@@H]1C2 [Example 106, (1R,3S,4R)-3-(2-Fluorophenyl)-2-oxa-5-azabicyclo[2.2.1]heptane] |  |  | 0.836 | 1.03 | 
8 | CCN(C[C@H]1COC(N)=N1)c1ccccc1 [reference compound] |  |  |  |  | Kd (rat TAAR1; read-out: dissociation constant (Kd) of the TAAR1 radioligand, rat TAAR1 membranes, saturation curve, usual value): ~2.3 nM; Kd (mouse TAAR1; read-out: dissociation constant (Kd) of the TAAR1 radioligand, mouse TAAR1 membranes, saturation curve, usual value): ~0.7 nM
